From patent US7432295B2, “Preparation of compounds useful for the detection of hypoxia” (The Trustees of The University of Pennsylvania, priority 1999, dated 2008)
“And” between values parts separate entries of the source, which are not always exact repeats. Equal entries are not always repeated. Blank lines part the entries; values can stand above or below the compound they belong to.

Experiments:
[1] = cited from earlier work
hypoxic tumors = details: in vivo; cited from earlier work
[2] = Distribution of radioactive drug in various organs and tissues of tumor-bearing rats (γ-counter); format: in vivo, male Buffalo rats; details: I/V
Description: To measure the distribution of radioactive drug in various organs and tissues, the solution of […] in saline buffer was injected I/V into 3 male Buffalo rats. […] The radioactivity of samples was measured by γ-counter and corrected for weight and the time of decay.
Results from 3 animals are shown.

[3] = tested on: hypoxic Q7 tumor (Morris 7777 hepatoma); assay: PET analysis of a tumor-bearing rat treated with [18F]-EF5; format: in vivo, male Buffalo rats; details: rat bearing Q7 tumor in the leg, 150 minutes post injection
Description: The dark spot on the right side of the image represents a tumor and the dark spot in the middle of the image represents a bladder.
FIG. 3 illustrates a PET image of a tumor-bearing rat treated with 18-F-labeled EF5, 150 minutes post injection. The dark spot in the right side of the image represents the tumor and the dark spot in the middle of the image represents the bladder.
Q7 cells were obtained from the American Type Culture Collection (ATCC). They were maintained in exponential growth by transfers at 3.5 day intervals with standard culture conditions. Growth medium was Eagle's NEM supplemented with 15% fetal calf serum and standard penicillin and streptomycin.
All animal studies conformed to the regulations of the University of Pennsylvania Institutional Animal Care and Use Committee. Male Buffalo rats (Harlan Sprague Dawley, Indianapolis, Ind., USA) were used for all studies. Donor tumors were created by injecting 1 million Q7 cells subcutaneously into the thigh region. The average growth time to achieve a 1 cm diameter tumor was 21 days. Tumors of less than 2 g were used in the experiments.

[4] = multiple radioactive products distinct from parent drug following renal clearance; cited from earlier work

SMILES: O=C(Cn1ccnc1[N+](=O)[O-])NCC(F)(F)C(F)(F)F [EF5, 2-(2-nitro-1H-imidazol-1-yl)-N-(2,2,3,3,3-pentafluoropropyl)acetamide]
Drug stability in vivo [1]: high drug stability in vivo
Blood-brain barrier passage ([1]; in vivo): ability to cross blood-brain barrier

SMILES: O=C(Cn1ccnc1[N+](=O)[O-])NCCCF [[^18F]-EF1]
Biodistribution (hypoxic tumors): relatively uniform biodistribution limited by slow equilibration with brain tissue
Labeling of hypoxic tumors (hypoxic tumors): good potential for labeling of hypoxic tumors

Tissue distribution of [^18F]-EF5 in rats bearing tumors ([2]; Blood, 3 hrs): 0.260 % dose/gram and 0.279 % dose/gram
Tissue distribution of [^18F]-EF5 in rats bearing tumors ([2]; Bone, 3 hrs): 0.040 % dose/gram and 0.079 % dose/gram
Tissue distribution of [^18F]-EF5 in rats bearing tumors ([2]; Bone, 4 hrs): 0.071 % dose/gram
Tissue distribution of [^18F]-EF5 in rats bearing tumors ([2]; Brain, 3 hrs): 0.116 % dose/gram and 0.176 % dose/gram
Tissue distribution of [^18F]-EF5 in rats bearing tumors ([2]; Brain, 4 hrs): 0.150 % dose/gram
Tissue distribution of [^18F]-EF5 in rats bearing tumors ([2]; Heart, 3 hrs): 0.209 % dose/gram and 0.318 % dose/gram
Tissue distribution of [^18F]-EF5 in rats bearing tumors ([2]; Heart): 0.277 % dose/gram
Tissue distribution of [^18F]-EF5 in rats bearing tumors ([2]; Intestine, 3 hrs): 0.410 % dose/gram and 0.477 % dose/gram
Tissue distribution of [^18F]-EF5 in rats bearing tumors ([2]; Intestine, 4 hrs): 0.376 % dose/gram
Tissue distribution of [^18F]-EF5 in rats bearing tumors ([2]; Kidney, 3 hrs): 0.510 % dose/gram and 0.650 % dose/gram
Tissue distribution of [^18F]-EF5 in rats bearing tumors ([2]; Kidney, 4 hrs): 0.500 % dose/gram
Tissue distribution of [^18F]-EF5 in rats bearing tumors ([2]; Liver, 3 hrs): 0.399 % dose/gram and 0.578 % dose/gram
Tissue distribution of [^18F]-EF5 in rats bearing tumors ([2]; Liver, 4 hrs): 0.489 % dose/gram
Tissue distribution of [^18F]-EF5 in rats bearing tumors ([2]; Lung, 3 hrs): 0.217 % dose/gram and 0.357 % dose/gram
Tissue distribution of [^18F]-EF5 in rats bearing tumors ([2]; Lung, 4 hrs): 0.326 % dose/gram
Tissue distribution of [^18F]-EF5 in rats bearing tumors ([2]; Muscle, 3 hrs): 0.162 % dose/gram and 0.246 % dose/gram
Tissue distribution of [^18F]-EF5 in rats bearing tumors ([2]; Muscle, 4 hrs): 0.187 % dose/gram
Tissue distribution of [^18F]-EF5 in rats bearing tumors ([2]; Spleen, 3 hrs): 0.192 % dose/gram and 0.294 % dose/gram
Tissue distribution of [^18F]-EF5 in rats bearing tumors ([2]; Spleen, 4 hrs): 0.242 % dose/gram
SMILES: O=C(Cn1ccnc1[N+](=O)[O-])NCC(F)(F)C(F)(F)F [[^18F]-EF5, [^18F]-2-(2-Nitro-1H-imidazol-1-yl)-N-(2,2,3,3,3-pentafluoropropyl)-acetamide]
Visibility of the tumor in the PET image [3]: clearly visible

SMILES: O=[N+]([O-])c1nccn1CC(O)C[18F] (stereo not shown) [[^18F]-fluoromisonidazole]
Stability in vivo [4]: not stable in vivo
